Assay results from ChEMBL document CHEMBL4393675, “Discovery of (R)-5-((5-(1-methyl-1H-pyrazol-4-yl)-4-(methylamino)pyrimidin-2-yl)amino)-3-(piperidin-3-yloxy)picolinonitrile, a novel CHK1 inhibitor for hematologic malignancies” (Eur J Med Chem, 2019).

Assays:
Assay type in all cases: ADME, organism-based
[1] = Cmax in ICR mouse at 15 mg/kg, iv administered and measured for 1 min to 12 hrs by LC/MS/MS analysis; design: dose 15 mg/kg, route intravenous; settings: in vivo
[2] = AUC (0 to t) in ICR mouse at 15 mg/kg, iv administered and measured for 1 min to 12 hrs by LC/MS/MS analysis; settings: in vivo
[3] = Half life in ICR mouse at 15 mg/kg, iv administered and measured for 1 min to 12 hrs by LC/MS/MS analysis; settings: in vivo
[4] = MRT in ICR mouse at 15 mg/kg, iv administered and measured for 1 min to 12 hrs by LC/MS/MS analysis; settings: in vivo
[5] = AUC (0 to infinity) in ICR mouse at 15 mg/kg, iv administered and measured for 1 min to 12 hrs by LC/MS/MS analysis; design: dose 15 mg/kg, time infinity, route intravenous; settings: in vivo
[6] = Volume of distribution at steady state in ICR mouse at 15 mg/kg, iv administered and measured for 1 min to 12 hrs by LC/MS/MS analysis; settings: in vivo, read-out: Vdss

**Q.** Which results are given for `CNc1nc(Nc2cnc(C#N)c(O[C@@H]3CCCNC3)c2)ncc1-c1cnn(C)c1`?
**A.** Cmax [1]: 849 ng/mL; AUC(0-t) [2]: 363 ng·h/mL; half-life [3]: 2.23 h; MRT [4]: 0.8 h; AUC [5]: 370 ng·h/mL; Vd [6]: 6.42 L/kg
